Structures can show the parent of a compound that is named as a salt. Where two headings read alike, the source gives them in different places.

Experiment [1] concerns the target T1, human 5-HT6 receptor (Homo sapiens, UniProt P50406).
T1 construct: expressed in transfected cells; host or cells: HEK293 (G-418 selected), membrane preparation
Briefly: 5-HT6 intrinsic activity assay (inhibition of 5-HT induced increase in cAMP). It is filed as cell-based. The note with it: read-out: Antagonist potency at the h5-HT6 receptor, IC50,corr. As to the method:
(b) 5-HT6 Intrinsic Activity Assay
Briefly, HEK293/5-HT6 cells were seeded in polylysine coated 96-well plates at a density of 25,000/well and grown in DMEM (Dulbecco's Modified Eagle Medium) (without phenol-red) containing 5% dialyzed Foetal Bovine Serum for 48 h at 37° C. in a 5% CO2 incubator. The medium was then aspirated and replaced by 0.1 ml assay medium (Hanks Balance Salt Solution containing 20 mM HEPES, 1.5 mM isobutylmethylxanthine and 1 mg/ml bovine serum albumin). After addition of test substances, 50 μl dissolved in assay medium, the cells were incubated for 10 min at +37° C. in a 5% CO2 incubator. The medium was again aspirated and the cAMP content was determined using a radioactive cAMP kit (Amersham Pharmacia Biotech, BIOTRAK RPA559).

For experiment [2], the target named is T1, human 5-HT6 receptor. Briefly: 5-HT6 receptor binding assay ([3H]-LSD, SPA, membranes of transfected HEK293 cells).

T1 sequence (P50406 whole entry): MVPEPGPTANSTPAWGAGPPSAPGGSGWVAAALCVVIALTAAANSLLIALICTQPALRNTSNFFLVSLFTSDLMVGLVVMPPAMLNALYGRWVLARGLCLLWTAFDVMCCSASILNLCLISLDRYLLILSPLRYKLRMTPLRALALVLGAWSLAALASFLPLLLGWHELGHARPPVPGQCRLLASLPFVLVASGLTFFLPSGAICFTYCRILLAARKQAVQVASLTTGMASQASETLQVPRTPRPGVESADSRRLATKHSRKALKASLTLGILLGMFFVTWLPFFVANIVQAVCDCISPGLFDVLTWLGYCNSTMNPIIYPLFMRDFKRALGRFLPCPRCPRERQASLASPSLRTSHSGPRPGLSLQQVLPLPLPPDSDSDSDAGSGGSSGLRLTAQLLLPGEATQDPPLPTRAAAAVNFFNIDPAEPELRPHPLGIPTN

In the case of `O=S(=O)(c1ccccc1)n1cc2c3c(cccc31)CN(Cc1ncc[nH]1)C2` [Example 3, 4-(1H-Imidazol-2-ylmethyl)-1-(phenylsulfonyl)-1,3,4,5-tetrahydropyrrolo[4,3,2-de]isoquinoline bis(trifluoroacetate)], the IC50 on human 5-HT6 receptor [1] was found to be 28 nM.

For the molecule `CCN1Cc2cccc3c2c(cn3S(=O)(=O)c2ccccc2)C1` [Example 5, 4-Ethyl-1-(phenylsulfonyl)-1,3,4,5-tetrahydropyrrolo[4,3,2-de] isoquinoline trifluoroacetate], at human 5-HT6 receptor [2] (read-out: Binding affinity (Ki) at the h5-HT6 receptor), the Ki was determined as 21 nM.

For the molecule `NCCc1c[nH]c2ccc(O)cc12` [Example 5-HT, 5-hydroxytryptamine, reference compound], the Hill coefficient on human 5-HT6 receptor [2] (inter assay, over three experiments) is recorded as 0.94 (SD 0.09).

`CN1CCc2cccc3c2c(cn3S(=O)(=O)c2ccccc2)C1` [Example 13, 4-Methyl-1-(phenylsulfonyl)-3,4,5,6-tetrahydro-1H-azepino[3,4,5-cd]indole hydrochloride] showed an inhibition constant (Ki) on human 5-HT6 receptor [2] of 6 nM.

Consider `O=S(=O)(c1ccccc1)n1cc2c3c(cccc31)CNCC2` [Example 15, 1-(Phenylsulfonyl)-3,4,5,6-tetrahydro-1H-azepino[5,4,3-cd]indole], for which the IC50 on human 5-HT6 receptor [1] was 8 nM.

As a reminder, the IC50 is the concentration that inhibits the measured activity by half. A word on the Ki: it is a dissociation constant, usually derived from enzyme kinetics or from competition with a known ligand.
